Like-named read-outs stand apart in the source and are kept apart here.
What was measured:
BAL eosinophils = assay: BAL eosinophil numbers in OVA sensitized and challenged mice; assay type: in vivo, BALB/c mice
From the text: (§1) Six-week to eight-week-old BALB/c mice (Jackson Animal Laboratory, Bar Harbor, Me.) were housed under specific pathogen-free conditions.
(§2) Mice were immunized against allergen by means of sensitization (once weekly intraperitoneal injection on days 0, 7, and 14) and challenge (once daily intranasal instillation for 5 days on days 41-45) with ovalbumin (OVA) as described (FIG. 1) (19).
(§3) Untreated sensitized and challenged mice or mice that had not undergone the sensitization and challenge process, received vehicle and were fed with normal mouse chow. […] Experimental mice were sacrificed on day 46.
Brochoalveolar lavage (BAL) fluid was acquired via infusion and recovery of cold PBS (2×1 ml) through the tracheal cannula from euthanized (pentobarbital 0.1 ml of 65 mg/ml) mice. Brochoalveolar lavage total leukocyte count and differentiated cell counts were performed as described (19).
Leukocytes and cytokines were measured in BAL fluid of OVA-sensitized mice 24 hours after the last of five daily nasal challenges with OVA (FIG. 1).

cytokines in BAL fluid = assay: Cytokines in BAL fluid of OVA sensitized and challenged mice (multiplex ELISA); assay type: in vivo, BALB/c mice; conditions: Dex 4.0 mg/kg/day, Nad 250 ppm, 24 h after last OVA challenge
From the text: as §1, §2, §3
The supernatants from brochoalveolar lavage samples, collected 24 hours after the last challenge with OVA, were provided to Pierce Searchlight, Aushon BioSystems, Inc. in blinded fashion. The concentrations of eotaxin, macrophage-derived chemokine (MDC), thymus and activation regulated chemokine (TARC), interleukin (IL)-1α, IL-5, IL-6, IL-12p70, IL-13, IL-17, IL-23, interferon (IFN), tumor necrosis factor alpha (TNF-a) and transforming growth factor beta (TGF-β1) were measured using multiplex enzyme-linked immunosorbent assay.
Definition of abbreviations in Table 1 are Th1/2/17=T helper (1, 2, or 17) type inflammation; MDC=macrophage-derived chemokine; TARC=thymus and activation regulated chemokine; IL=interleukin-1a, IL-5, IL-6, IL-12p70, IL-13, IL-17, IL-23; IFNγ=interferon gamma; TNFα=tumor necrosis factor alpha; TGFβ1=transforming growth factor betal. The percentage from No Rx is in comparison to No OVA for each cytokine, while percentage of each drug treatment group [Dex (4.0 mg/kg/day); Nad (250 ppm); and Dex+Nad (0.4 mg/kg/day+25 ppm)] is in comparison to No Rx. Values are the means±SEM of data from 4 mice in each group (n=4); and *, indicate significant difference compared to No Rx, P<0.05.

[1] = test system: mucin content in the airway epithelium; assay: Airway epithelial mucin content (PAFS staining, mucin volume density) in OVA sensitized and challenged mice; assay type: in vivo, BALB/c mice; conditions: for reduction in mucin content: high dose: dexamethasone 4 mg/kg/day
From the text: as §1, §2, §3
Lungs were perfused with 4% paraformaldehyde in PBS (pH 7.0) via a tracheal cannula at room temperature, then removed from the thoracic cavity and further fixed overnight at 4° C. (25). After overnight fixation, lungs were embedded in paraffin and then sectioned and stained with periodic acid fluorescent Schiff's (PAFS) reagent to examine intracellular mucin. Tissue sections were examined under a 40× objective and images (MagnaFire 2.1 Optronics) were acquired prior to any measurements and analyzed (ImagePro Plus) by blinded investigators (25).

mucin content = conditions: previous study (19), cited from earlier work
[2] = test system: airway hyperresponsiveness; conditions: mild asthmatics, dose escalation protocol; cited from earlier work
[3] = intermediate doses: dexamethasone 0.4 mg/kg/day IP 8 days, nadolol 25 ppm in chow 28 days, BAL 24 h after last OVA challenge
[4] = low doses: dexamethasone 0.1 mg/kg/day IP 8 days, nadolol 5 ppm in chow 28 days, BAL 24 h after last OVA challenge

Row | SMILES | reduction in eosinophils (BAL eosinophils; [3]) [%] | reduction in eosinophils (BAL eosinophils; [4]) [%] | IL-1a, percentage in comparison to No Rx (cytokines in BAL fluid) | IL-5, percentage in comparison to No Rx (cytokines in BAL fluid) | IL-6, percentage in comparison to No Rx (cytokines in BAL fluid) | IL-12p70, percentage in comparison to No Rx (cytokines in BAL fluid) | IL-13, percentage in comparison to No Rx (cytokines in BAL fluid) | IL-17, percentage in comparison to No Rx (cytokines in BAL fluid) | IL-23, percentage in comparison to No Rx (cytokines in BAL fluid) | MDC, percentage in comparison to No Rx (cytokines in BAL fluid) | TARC, percentage in comparison to No Rx (cytokines in BAL fluid) | TGFβ1, percentage in comparison to No Rx (cytokines in BAL fluid) | TNFa, percentage in comparison to No Rx (cytokines in BAL fluid) | eotaxin, percentage in comparison to No Rx (cytokines in BAL fluid) | IFNg level in BAL fluid (cytokines in BAL fluid; mean ± SEM, n=4) [pg/mL] | IL-1a level in BAL fluid (cytokines in BAL fluid; mean ± SEM, n=4) [pg/mL] | IL-5 level in BAL fluid (cytokines in BAL fluid; mean ± SEM, n=4) [pg/mL] | IL-6 level in BAL fluid (cytokines in BAL fluid; mean ± SEM, n=4) [pg/mL] | IL-12p70 level in BAL fluid (cytokines in BAL fluid; mean ± SEM, n=4) [pg/mL] | IL-13 level in BAL fluid (cytokines in BAL fluid; mean ± SEM, n=4) [pg/mL] | further results
1 | C[C@@H]1C[C@H]2[C@@H]3CCC4=CC(=O)C=C[C@]4(C)[C@@]3(F)[C@@H](O)C[C@]2(C)[C@@]1(O)C(=O)CO [dexamethasone] | 58 | 36 | (233%)* | (30%)* | (163%) | (180%) | (27%)* | (0) % | (200%) | (5%)* | (15%)* | (35%)* | (23%)* | (27%)* | 90 ± 1.1 | 35 ± 7.1 | 63 ± 19.3 | 39 ± 28.2 | 9 ± 1.3 | 12 ± 5.0 | reduction in eosinophils (BAL eosinophils; high-dose dexamethasone 4.0 mg/kg/day IP 8 days): 89%; IFNg, percentage in comparison to No Rx (cytokines in BAL fluid): (1500%); IL-17 level in BAL fluid (cytokines in BAL fluid; mean ± SEM, n=4): 2 ± 0.4 pg/mL; IL-23 level in BAL fluid (cytokines in BAL fluid; mean ± SEM, n=4): 74 ± 10.0 pg/mL; MDC level in BAL fluid (cytokines in BAL fluid; mean ± SEM, n=4): 10 ± 1.0 pg/mL; TARC level in BAL fluid (cytokines in BAL fluid; mean ± SEM, n=4): 475 ± 47.0 pg/mL; TGFβ1 level in BAL fluid (cytokines in BAL fluid; mean ± SEM, n=4): 4675 ± 792 pg/mL; TNFa level in BAL fluid (cytokines in BAL fluid; mean ± SEM, n=4): 14 ± 1.0 pg/mL; eotaxin level in BAL fluid (cytokines in BAL fluid; mean ± SEM, n=4): 12 ± 2.0 pg/mL; reduction in mucin content ([1]; nadolol 250 ppm): 72%
2 | CC(C)(C)NCC(O)COc1cccc2c1CC(O)C(O)C2 (stereo not shown) [nadolol] | 36 | 20 | (73%) | (56%)* | (88%) | (140%) | (13%)* | (50%) | (76%) | (27%)* | (19%)* | (45%)* | (53%)* | (80%) | 7 ± 1.1 | 11 ± 5.0 | 118 ± 33.0 | 21 ± 10.0 | 7 ± 1.0 | 6 ± 2.0 | maximal reductions in airway eosinophilia from OVA S/C (BAL eosinophils; nadolol 250 ppm, detected at day 7 of treatment): ~50%; IL-17 level in BAL fluid (cytokines in BAL fluid; mean ± SEM, n=4): 1 ± 0.2 pg/mL; IL-23 level in BAL fluid (cytokines in BAL fluid; mean ± SEM, n=4): 28 ± 4.3 pg/mL; TARC level in BAL fluid (cytokines in BAL fluid; mean ± SEM, n=4): 593 ± 223.5 pg/mL; TGFβ1 level in BAL fluid (cytokines in BAL fluid; mean ± SEM, n=4): 5891 ± 710 pg/mL; TNFa level in BAL fluid (cytokines in BAL fluid; mean ± SEM, n=4): 33 ± 8.0 pg/mL; eotaxin level in BAL fluid (cytokines in BAL fluid; mean ± SEM, n=4): 36 ± 6.0 pg/mL; change in mucin content ([1]; all doses of chronic nadolol (5, 25, 250 ppm)): significant decreases; reduction in mucin content ([1]; nadolol 250 ppm): 86%; mucin volume density after 7 days of treatment vs vehicle treated control mice ([1]; nadolol 250 ppm, 7 days): significant reductions; day at which maximal effect on mucin volume density is achieved ([1]; nadolol 250 ppm, time course): 22 days; reduction in mucin content (mucin content; 7 days of treatment with nadolol): very modest reduction; reduction in mucin content (mucin content; 28 days of treatment with nadolol): ~90%; airway hyperresponsiveness [2]: reduction in airway hyperresponsiveness

Reference: US9730889B2, “Steroid-sparing effects of beta-adrenergic inverse agonists and uses thereof” (University of Houston System, priority 2011, dated 2017)
